Reference: ChEMBL document CHEMBL6121006, “Marine natural product-inspired discovery of novel BRD4 inhibitors with anti-inflammatory activity” (Eur J Med Chem, 2025)
Active and inactive are the calls of the source. The rule behind the calls is not given here.

Experiments:
[1] = biological target: T1, Bromodomain-containing protein 4 (Homo sapiens, UniProt O60885); assay: Inhibition of human recombinant BRD4 BD1 (42 to 167 residues) extracted from Escherichia coli BL21 (DE3) at 10 uM incubated for 2 hrs by TR-FRET assay relative to control
[2] = biological target: T1, Bromodomain-containing protein 4; assay: Inhibition of human recombinant BRD4 BD2 (349 to 460 residues) extracted from Escherichia coli BL21 (DE3) at 10 uM incubated for 2 hrs by TR-FRET assay relative to control
[3] = biological target: T1, Bromodomain-containing protein 4; assay: Inhibition of human recombinant BRD4 BD1 (42 to 167 residues) extracted from Escherichia coli BL21 (DE3) incubated for 2 hrs by TR-FRET assay
[4] = biological target: T1, Bromodomain-containing protein 4; assay: Inhibition of human recombinant BRD4 BD2 (349 to 460 residues) extracted from Escherichia coli BL21 (DE3) incubated for 2 hrs by TR-FRET assay
[5] = biological target: T1, Bromodomain-containing protein 4; assay: Selectivity index, ratio of IC50 for human recombinant BRD4 BD1 (42 to 167 residues) extracted from Escherichia coli BL21 (DE3) to IC50 for human recombinant BRD4 BD2 (349 to 460 residues) extracted from Escherichia coli BL21 (DE3)
[6] = system: RAW264.7; assay: Anti-inflammatory activity in mouse RAW264.7 cells assessed as inhibition of LPS-induced NO production at 10 uM preincubated with compound for 24 hrs followed by LPS stimulation by Griess reagent based analysis relative to control; type: functional; design: scale not given: the % may be the effect or the level left
[7] = system: RAW264.7; assay: Anti-inflammatory activity in mouse RAW264.7 cells assessed as inhibition of LPS-induced NO production preincubated with compound for 24 hrs followed by LPS stimulation by Griess reagent based analysis; type: functional, cell-based
[8] = system: RAW264.7; assay: Anti-inflammatory activity in mouse RAW264.7 cells assessed as inhibition of LPS-induced IL-6 expression preincubated with compound for 2 hrs followed by LPS stimulation and measured after 6 hrs by RT-qPCR analysis; type: functional, cell-based; details: dose 2.5-20 µM, time 8.0 hrs
[9] = system: RAW264.7; assay: Anti-inflammatory activity in mouse RAW264.7 cells assessed as inhibition of LPS-induced TNF-alpha expression preincubated with compound for 2 hrs followed by LPS stimulation and measured after 6 hrs by RT-qPCR analysis; type: functional, cell-based; details: dose 2.5-20 µM, time 8.0 hrs
[10] = system: THP-1; assay: Anti-inflammatory activity in human THP-1 cells assessed as inhibition of LPS-induced IL-6 expression preincubated with compound for 2 hrs followed by LPS stimulation and measured after 6 hrs by RT-qPCR analysis; type: functional, cell-based; details: dose 2.5-20 µM, time 8.0 hrs
[11] = system: THP-1; assay: Anti-inflammatory activity in human THP-1 cells assessed as inhibition of LPS-induced TNF-alpha expression preincubated with compound for 2 hrs followed by LPS stimulation and measured after 6 hrs by RT-qPCR analysis; type: functional, cell-based; details: dose 2.5-20 µM, time 8.0 hrs
[12] = biological target: T1, Bromodomain-containing protein 4; assay: Inhibition of BRD4 (unknown origin)

**Q.** `COc1cc(OC)c2c(=O)[nH]c(/C=C/c3ccc(N(C)C)cc3)nc2c1` was tested. Which inhibition [1] did it give?
**A.** 24%

**Q.** And the inhibition [2]?
**A.** 74%

**Q.** What about the IC50 [3] of the same compound?
**A.** > 10 µM

**Q.** What about the IC50 [4] of the same compound?
**A.** 0.47 µM

**Q.** What about the Ratio IC50 [5] of the same compound?
**A.** > 21

**Q.** What about the Activity [6] of the same compound?
**A.** 24%

**Q.** With `COc1cc(OC)c2c(=O)[nH]c(C(=O)c3cccc(C(F)(F)F)c3)nc2c1` as the compound, how does the inhibition [1] read?
**A.** 13%

**Q.** What about the inhibition [2] of the same compound?
**A.** 53%

**Q.** And the IC50 [3]?
**A.** > 10 µM

**Q.** And the IC50 [4]?
**A.** > 10 µM

**Q.** What about the Activity [6] of the same compound?
**A.** 12%

**Q.** Which inhibition [1] does the source give for `COc1cc(OC)c2c(=O)[nH]c(C(=O)c3cc(OC)c(OC)c(OC)c3)nc2c1` here?
**A.** 11%

**Q.** What about the inhibition [2] of the same compound?
**A.** 17%

**Q.** Which results are given for `COc1ccc(C(=O)c2nc3cc(OC)cc(OC)c3c(=O)[nH]2)cc1`?
**A.** inhibition [1]: inactive; inhibition [2]: 51%; inhibition [3]: inactive; IC50 [4]: 3.93 µM; Ratio IC50 [5]: > 10; Activity [6]: 6.4%

**Q.** With `COc1cc(OC)c2c(=O)[nH]c(/C=C/c3ccc(Cl)cc3)nc2c1` as the compound, how does the inhibition [1] read?
**A.** 23%

**Q.** And the inhibition [2]?
**A.** 54%

**Q.** And the IC50 [3]?
**A.** > 10 µM

**Q.** What about the IC50 [4] of the same compound?
**A.** > 10 µM

**Q.** And the Activity [6]?
**A.** 11%

**Q.** What does the source list for `O=C(c1ccc2ccccc2c1)c1nc2ccccc2c(=O)[nH]1`?
**A.** inhibition [1]: 16%; inhibition [2]: 17%

**Q.** Which results are given for `COc1ccc(Cc2nc3cc(OC)cc(OC)c3c(=O)[nH]2)cc1`?
**A.** inhibition [1]: 56%; inhibition [2]: 75%; IC50 [3]: 4.59 µM; IC50 [4]: 1.52 µM; Ratio IC50 [5]: 3; Activity [6]: 15%

**Q.** Which inhibition [1] does the source give for `COc1ccc(C(=O)c2nc3cc(OC)c(I)c(OC)c3c(=O)[nH]2)cc1` here?
**A.** 10%

**Q.** What about the inhibition [2] of the same compound?
**A.** 53%

**Q.** And the IC50 [3]?
**A.** > 10 µM

**Q.** What about the IC50 [4] of the same compound?
**A.** > 10 µM

**Q.** And the Activity [6]?
**A.** 14%

**Q.** Which results are given for `COc1cc(OC)c2c(=O)[nH]c(C(=O)c3ccc(OC)c(OC)c3)nc2c1`?
**A.** inhibition [1]: 13%; inhibition [2]: 47%

**Q.** Which results are given for `COc1cc(OC)c2c(=O)[nH]c(C=C(c3ccccc3)c3ccccc3)nc2c1`?
**A.** inhibition [1]: 3.1%; inhibition [2]: 66%; IC50 [3]: > 10 µM; IC50 [4]: 7.06 µM; Ratio IC50 [5]: > 1; Activity [6]: 21%

**Q.** Which inhibition [1] does the source give for `COc1cc(OC)c2c(=O)[nH]c(C(=O)c3ccc(OCCO)cc3)nc2c1` here?
**A.** 1.3%

**Q.** And the inhibition [2]?
**A.** 48%

**Q.** With `COc1cc(OC)c2c(=O)[nH]c(-c3cc(C)c(OCCO)c(C)c3)nc2c1` [APABETALONE] as the compound, how does the inhibition [2] read?
**A.** 99%

**Q.** What about the Activity [6] of the same compound?
**A.** 74%

**Q.** What about the IC50 [7] of the same compound?
**A.** 8.76 µM

**Q.** And the Activity [8]?
**A.** Dose-dependent-effect

**Q.** And the Activity [9]?
**A.** Dose-dependent-effect

**Q.** And the Activity [10]?
**A.** Dose-dependent-effect

**Q.** What about the Activity [11] of the same compound?
**A.** Dose-dependent-effect

**Q.** What does the source list for `COc1ccc(CCc2nc3cc(OC)cc(OC)c3c(=O)[nH]2)cc1`?
**A.** inhibition [1]: 12%; inhibition [2]: 86%; IC50 [3]: > 10 µM; IC50 [4]: 0.74 µM; Ratio IC50 [5]: > 13; Activity [6]: 17%

**Q.** Which inhibition [1] does the source give for `COc1cc(OC)c2c(=O)[nH]c(CC(C)c3ccc(C(C)(C)C)cc3)nc2c1` (stereo not given) here?
**A.** 54%

**Q.** And the inhibition [2]?
**A.** 97%

**Q.** And the IC50 [3]?
**A.** > 10 µM

**Q.** What about the IC50 [4] of the same compound?
**A.** 0.74 µM

**Q.** And the Ratio IC50 [5]?
**A.** > 13

**Q.** What about the Activity [6] of the same compound?
**A.** 3.4%

**Q.** Which Activity [6] does the source give for `C[C@@H]1C[C@H]2[C@@H]3CCC4=CC(=O)C=C[C@]4(C)[C@@]3(F)[C@@H](O)C[C@]2(C)[C@@]1(O)C(=O)CO` [DEXAMETHASONE] here?
**A.** 29%

**Q.** Which results are given for `COc1cc(OC)c2c(=O)[nH]c(C(=O)c3ccc(F)cc3)nc2c1`?
**A.** inhibition [1]: inactive; inhibition [2]: 52%; inhibition [3]: inactive; IC50 [4]: 1.84 µM; Ratio IC50 [5]: > 10; Activity [6]: 18%

**Q.** Which results are given for `COc1cc(C(=O)c2nc3ccccc3c(=O)[nH]2)cc(OC)c1OC`?
**A.** inhibition [1]: 22%; inhibition [2]: 15%

**Q.** Which results are given for `COc1cc(OC)c2c(=O)[nH]c(C(=O)c3cccc(C#N)c3)nc2c1`?
**A.** inhibition [1]: 12%; inhibition [2]: 48%

**Q.** Which inhibition [1] does the source give for `COc1ccc(C(=O)c2nc3ccccc3c(=O)[nH]2)cc1` here?
**A.** 54%

**Q.** And the inhibition [2]?
**A.** 42%

**Q.** And the IC50 [3]?
**A.** 2.16 µM

**Q.** What about the Activity [6] of the same compound?
**A.** 5.4%

**Q.** Which inhibition [1] does the source give for `COc1cccc(/C=C/c2nc3cc(OC)cc(OC)c3c(=O)[nH]2)c1` here?
**A.** inactive

**Q.** And the inhibition [2]?
**A.** 67%

**Q.** What about the inhibition [3] of the same compound?
**A.** inactive

**Q.** And the IC50 [4]?
**A.** > 10 µM

**Q.** And the Activity [6]?
**A.** 78%

**Q.** What about the IC50 [7] of the same compound?
**A.** 5.22 µM

**Q.** For `COc1cc(OC)c2c(=O)[nH]c(/C=C/c3cc(OC)c(O)c(OC)c3)nc2c1`, which inhibition [1] is on record?
**A.** 13%

**Q.** And the inhibition [2]?
**A.** 98%

**Q.** And the IC50 [3]?
**A.** > 10 µM

**Q.** What about the IC50 [4] of the same compound?
**A.** 0.39 µM

**Q.** And the Ratio IC50 [5]?
**A.** > 26

**Q.** What about the Activity [6] of the same compound?
**A.** 18%

**Q.** With `O=C(c1ccc(O)cc1)c1nc2ccccc2c(=O)[nH]1` as the compound, how does the inhibition [1] read?
**A.** 17%

**Q.** What about the inhibition [2] of the same compound?
**A.** 11%

**Q.** Which IC50 [12] does the source give for `Cc1nnn(C)c1-c1cnc2c3cc4cnn(C)c4cc3n([C@H](c3ccccc3)C3CCOCC3)c2c1` here?
**A.** 0.00245 µM

**Q.** For `COc1cc(OC)c2c(=O)[nH]c(/C(C)=C/c3ccccc3)nc2c1`, which inhibition [1] is on record?
**A.** 20%

**Q.** What about the inhibition [2] of the same compound?
**A.** 59%

**Q.** What about the IC50 [3] of the same compound?
**A.** > 10 µM

**Q.** What about the IC50 [4] of the same compound?
**A.** 1.33 µM

**Q.** What about the Ratio IC50 [5] of the same compound?
**A.** > 7

**Q.** And the Activity [6]?
**A.** 6.8%

**Q.** With `COc1cc(OC)c2c(=O)[nH]c(C3CCN(Cc4ccccc4)CC3)nc2c1` as the compound, how does the inhibition [1] read?
**A.** 51%

**Q.** What about the inhibition [2] of the same compound?
**A.** 46%

**Q.** What about the IC50 [3] of the same compound?
**A.** 7.87 µM

**Q.** And the IC50 [4]?
**A.** > 10 µM

**Q.** What about the Activity [6] of the same compound?
**A.** 89%

**Q.** And the IC50 [7]?
**A.** 6.78 µM

**Q.** For `COc1cc(OC)c2c(=O)[nH]c(C(=O)c3cc(F)ccc3F)nc2c1`, which inhibition [1] is on record?
**A.** 10%

**Q.** And the inhibition [2]?
**A.** 46%
